As a reminder, the IC50 is the midpoint of a concentration-inhibition curve. The low end stands for greater potency in that assay, the high end for weaker potency in that assay.

The target of this assay is T1, Gag-Pol polyprotein [588-1027]/[588-1147] (Human immunodeficiency virus 1, UniProt P04585).
T1 construct: 588-1027; 588-1147
Kind of assay: HIV-1 RT Assay. Particulars: pH 7.8; 37 °C.
Consider `CCOC(=O)c1cc(C(C)O)cn1S(=O)(=O)c1cc(Cl)ccc1N` (stereo unspecified) [ethyl 1-[(2-amino-5-chlorobenzene)sulfonyl]-4-(1-hydroxyethyl)-1H-pyrrole-2-carboxylate], for which half-maximal inhibition (IC50) required 170 nM. That is a sub-micromolar value.

`CCOC(=O)c1cc(CO)cn1S(=O)(=O)c1cc(Cl)ccc1N` [ethyl 1-[(2-amino-5-chlorobenzene)sulfonyl]-4-(hydroxymethyl)-1H-pyrrole-2-carboxylate] gave an IC50 of 50 nM.

Compound `CCOC(=O)c1cc(CNc2ccccc2)cn1S(=O)(=O)c1cc(Cl)ccc1N` [ethyl 1-[(2-amino-5-chlorobenzene)sulfonyl]-4-[(phenylamino)methyl]-1H-pyrrole-2-carboxylate] showed an IC50 of 500 nM.

Regarding `CCOC(=O)c1cccn1S(=O)(=O)c1c(N)cccc1Cl` [ethyl 1-[(2-amino-6-chlorobenzene)sulfonyl]-1H-pyrrole-2-carboxylate], the IC50 was above 100000 nM.

Compound `CC(C)OC(=O)c1cc(CO)cn1S(=O)(=O)c1cc(Cl)ccc1N` [propan-2-yl 1-[(2-amino-5-chlorobenzene)sulfonyl]-4-(hydroxymethyl)-1H-pyrrole-2-carboxylate] gave an IC50 of 110 nM. This lies in the sub-micromolar range.

`CCOC(=O)c1cc(C)cn1S(=O)(=O)c1cc(Cl)ccc1N` [ethyl 1-[(2-amino-5-chlorobenzene)sulfonyl]-4-methyl-1H-pyrrole-2-carboxylate] had an IC50 of 80 nM.

The compound `CCOC(=O)c1cc(COc2ccccc2)cn1S(=O)(=O)c1cc(Cl)ccc1N` [ethyl 1-[(2-amino-5-chlorobenzene)sulfonyl]-4-(phenoxymethyl)-1H-pyrrole-2-carboxylate] returned an IC50 of 600 nM.

In the case of `CC(C)OC(=O)c1cc(CNc2ccccc2)cn1S(=O)(=O)c1cc(Cl)ccc1N` [propan-2-yl 1-[(2-amino-5-chlorobenzene)sulfonyl]-4-[(phenylamino)methyl]-1H-pyrrole-2-carboxylate], the IC50 came to 300 nM.

`C=Cc1cc(C(=O)OCC)n(S(=O)(=O)c2cc(Cl)ccc2N)c1` [ethyl 1-[(2-amino-5-chlorobenzene)sulfonyl]-4-ethenyl-1H-pyrrole-2-carboxylate] yielded a concentration for half-maximal inhibition (IC50) of 280 nM.

`CCOC(=O)c1cc(COC)cn1S(=O)(=O)c1cc(Cl)ccc1N` [ethyl 1-[(2-amino-5-chlorobenzene)sulfonyl]-4-(methoxymethyl)-1H-pyrrole-2-carboxylate] displayed an IC50 of 600 nM. This IC50 is about 2.1-fold higher than that of the compound before.

Compound `CCOC(=O)c1cccn1S(=O)(=O)c1cc(Cl)ccc1-n1cccc1` [Ethyl 1-{[5-Chloro-2-(1H-pyrrol-1-yl)phenyl]sulfonyl}-1H-pyrrole-2-carboxylate] displayed an IC50 above 100000 nM.
